According to ChEMBL document CHEMBL1201862, “PubChem BioAssay data set” (2004):
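Cultured in 96-well plates, cells were exposed to test compound for 48 hours across five concentrations. The concentration for 50% growth inhibition is given as GI50.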 Calls of active or inactive are those of the source. No stated cut-off is given here; in the data, active = GI50 up to about 1.1 µM and inactive = higher.

Experiments:
Assay in all cases: NCI-60 cell line screen, 48 h
786-0 = test system: 786-0
A498 = test system: A498
A549 = test system: A549
ACHN = test system: ACHN
BT-549 = test system: BT-549
CAKI-1 = test system: CAKI-1
CCRF-CEM = test system: CCRF-CEM
COLO 205 = test system: COLO 205
DU-145 = test system: DU-145
EKVX = test system: EKVX
HCC 2998 = test system: HCC 2998
HCT-116 = test system: HCT-116
HCT-15 = test system: HCT-15
HOP-62 = test system: HOP-62
HOP-92 = test system: HOP-92
Hs-578T = test system: Hs-578T
K562 = test system: K562
KM12 = test system: KM12
LOX IMVI = test system: LOX IMVI
M14 = test system: M14
MCF7 = test system: MCF7
MDA-MB-231 = test system: MDA-MB-231
MDA-MB-435 = test system: MDA-MB-435
MDA-N = test system: MDA-N
MOLT-4 = test system: MOLT-4
Malme-3M = test system: Malme-3M
NCI-H226 = test system: NCI-H226
NCI-H23 = test system: NCI-H23
NCI-H460 = test system: NCI-H460
NCI-H522 = test system: NCI-H522
NCI/ADR-RES = test system: NCI/ADR-RES
OVCAR-3 = test system: OVCAR-3
OVCAR-4 = test system: OVCAR-4
OVCAR-5 = test system: OVCAR-5
OVCAR-8 = test system: OVCAR-8
PC-3 = test system: PC-3
RPMI-8226 = test system: RPMI-8226
RXF 393 = test system: RXF 393
SF-268 = test system: SF-268
SF-295 = test system: SF-295
SF-539 = test system: SF-539
SK-MEL-28 = test system: SK-MEL-28
SK-MEL-2 = test system: SK-MEL-2
SK-MEL-5 = test system: SK-MEL-5
SK-OV-3 = test system: SK-OV-3
SN12C = test system: SN12C
SNB-19 = test system: SNB-19
SNB-75 = test system: SNB-75
SR = test system: SR
SW-620 = test system: SW-620
T47D = test system: T47D
TK-10 = test system: TK-10
U-251 = test system: U-251
UACC-257 = test system: UACC-257
UACC-62 = test system: UACC-62
UO-31 = test system: UO-31
HT-29 = test system: HT-29
IGROV-1 = test system: IGROV-1

CC1OC(OC2C(O)COC(OC3C(C)OC(OC4C(OC(=O)[C@]56CCC(C)(C)C[C@@H]5C5=CCC7[C@@]8(C)C[C@H](O)[C@H](OC9OC(CO)C(O)C(O)C9O)[C@@](C)(CO)[C@@H]8CC[C@@]7(C)[C@]5(C)CC6)OCC(O)C4O)C(O)C3OC3OCC(O)C(O)C3O)C2O)C(O)C(O)C1O (stereo partly drawn)
GI50 (786-0): 15.5 µM (inactive)
GI50 (A498): 14.3 µM (inactive)
GI50 (A549): 14 µM (inactive)
GI50 (ACHN): 17.8 µM (inactive)
GI50 (BT-549): 31.9 µM (inactive)
GI50 (CAKI-1): 10.7 µM (inactive)
GI50 (CCRF-CEM): 15.6 µM (inactive)
GI50 (COLO 205): 4.46 µM (inactive)
GI50 (DU-145): 18.4 µM (inactive)
GI50 (EKVX): 10.7 µM (inactive)
GI50 (HCC 2998): 16.6 µM (inactive)
GI50 (HCT-116): 19.9 µM (inactive)
GI50 (HCT-15): 28.8 µM
GI50 (HOP-62): 17.8 µM (inactive)
GI50 (HOP-92): 24.8 µM (inactive)
GI50 (Hs-578T): 40.9 µM (inactive)
GI50 (K562): 42.9 µM (inactive)
GI50 (KM12): 25.7 µM (inactive)
GI50 (LOX IMVI): 18.9 µM (inactive)
GI50 (M14): 11 µM (inactive)
GI50 (MCF7): 19.8 µM (inactive)
GI50 (MDA-MB-231): 14.7 µM (inactive)
GI50 (MDA-MB-435): 21.8 µM (inactive)
GI50 (MDA-N): 18.8 µM (inactive)
GI50 (MOLT-4): 20.1 µM (inactive)
GI50 (Malme-3M): 34.4 µM (inactive)
GI50 (NCI-H226): 23.1 µM (inactive)
GI50 (NCI-H23): 20.8 µM (inactive)
GI50 (NCI-H460): 20.1 µM (inactive)
GI50 (NCI-H522): 44.9 µM (inactive)
GI50 (NCI/ADR-RES): 26.2 µM (inactive)
GI50 (OVCAR-3): 17.8 µM (inactive)
GI50 (OVCAR-4): 20.1 µM (inactive)
GI50 (OVCAR-5): 14.4 µM (inactive)
GI50 (OVCAR-8): 19.5 µM (inactive)
GI50 (PC-3): 14 µM (inactive)
GI50 (RPMI-8226): 39 µM (inactive)
GI50 (RXF 393): 15.9 µM (inactive)
GI50 (SF-268): 29.2 µM (inactive)
GI50 (SF-295): 20.7 µM (inactive)
GI50 (SF-539): 18.1 µM (inactive)
GI50 (SK-MEL-28): 11.2 µM (inactive)
GI50 (SK-MEL-2): 21.4 µM (inactive)
GI50 (SK-MEL-5): 19.5 µM (inactive)
GI50 (SK-OV-3): 18.6 µM (inactive)
GI50 (SN12C): 17.5 µM (inactive)
GI50 (SNB-19): 19.1 µM (inactive)
GI50 (SNB-75): 22.6 µM (inactive)
GI50 (SR): 17.9 µM (inactive)
GI50 (SW-620): 14.9 µM (inactive)
GI50 (T47D): 20.2 µM (inactive)
GI50 (TK-10): 17.3 µM (inactive)
GI50 (U-251): 20 µM (inactive)
GI50 (UACC-257): 14.9 µM (inactive)
GI50 (UACC-62): 22.3 µM (inactive)
GI50 (UO-31): 5.19 µM (inactive)

CCC(=O)Oc1ccc2c(c1)c(=O)c1c(NCCCN(C)C)ccc3nnn2c31
GI50 (786-0): 0.361 µM (active)
GI50 (A498): 2.77 µM (inactive)
GI50 (A549): 0.275 µM (active)
GI50 (ACHN): 0.385 µM (active)
GI50 (BT-549): 12.3 µM (inactive)
GI50 (CAKI-1): 0.664 µM (active)
GI50 (CCRF-CEM): 0.127 µM (active)
GI50 (COLO 205): 1.99 µM (inactive)
GI50 (DU-145): 1.04 µM (active)
GI50 (EKVX): 1.17 µM (inactive)
GI50 (HCC 2998): 1.25 µM (inactive)
GI50 (HCT-116): 0.334 µM (active)
GI50 (HCT-15): 0.4 µM
GI50 (HOP-62): 1.53 µM (inactive)
GI50 (HOP-92): 3.48 µM (inactive)
GI50 (HT-29): 0.69 µM (active)
GI50 (Hs-578T): 5.56 µM (inactive)
GI50 (IGROV-1): 0.0914 µM (active)
GI50 (K562): 0.726 µM (active)
GI50 (KM12): 0.796 µM (active)
GI50 (LOX IMVI): 1.03 µM (active)
GI50 (M14): 5.3 µM (inactive)
GI50 (MCF7): 0.536 µM (active)
GI50 (MDA-MB-231): 3.44 µM (inactive)
GI50 (MDA-MB-435): 2.79 µM (inactive)
GI50 (MDA-N): 3.86 µM (inactive)
GI50 (MOLT-4): < 0.0204 µM (active)
GI50 (Malme-3M): 3.98 µM (inactive)
GI50 (NCI-H226): 2.31 µM (inactive)
GI50 (NCI-H23): 3.35 µM (inactive)
GI50 (NCI-H460): 0.0348 µM (active)
GI50 (NCI-H522): 0.188 µM (active)
GI50 (NCI/ADR-RES): 3.31 µM (inactive)
GI50 (OVCAR-3): 7 µM (inactive)
GI50 (OVCAR-4): 0.548 µM (active)
GI50 (OVCAR-5): 8.28 µM (inactive)
GI50 (OVCAR-8): 0.403 µM (active)
GI50 (PC-3): 2.48 µM (inactive)
GI50 (RPMI-8226): 0.767 µM (active)
GI50 (RXF 393): 1.83 µM (inactive)
GI50 (SF-268): 1.8 µM (inactive)
GI50 (SF-295): 2.45 µM (inactive)
GI50 (SF-539): 1.71 µM (inactive)
GI50 (SK-MEL-28): 10.9 µM (inactive)
GI50 (SK-MEL-2): 13 µM (inactive)
GI50 (SK-MEL-5): 1.9 µM (inactive)
GI50 (SK-OV-3): 4.36 µM (inactive)
GI50 (SN12C): 0.525 µM (active)
GI50 (SNB-19): 2.06 µM (inactive)
GI50 (SR): 0.201 µM (active)
GI50 (SW-620): 0.322 µM (active)
GI50 (T47D): 15.7 µM (inactive)
GI50 (TK-10): 0.818 µM (active)
GI50 (U-251): 1.42 µM (inactive)
GI50 (UACC-257): 10.6 µM (inactive)
GI50 (UACC-62): 11.2 µM (inactive)
GI50 (UO-31): 0.953 µM (active)
